Where two headings read alike, the source gives them in different places.
How the values were obtained:
hERG = hERG (Homo sapiens, UniProt Q12809); test: In vitro hERG cardiotoxocity; conditions: for perc_inhibition_top_conc: at top test concentration 30 uM; for IC50: top test concentration 30 uM
Excerpt: Supplement media-1.zip/Cardiotoxicity.csv, table | column: ic50; perc_inhibition_top_conc

[1] = molecular target: T1, Potassium Channel hERG (human) (Homo sapiens, UniProt Q12809); test: In vitro CEREP profiling, Potassium Channel hERG (human)- [3H] Dofetilide; format: binding; conditions: test compound concentration 10 uM
T1 construct: purchased Eurofins Cerep (SafetyScreen44), recognised from the panel format
T1 sequence (Q12809 whole entry): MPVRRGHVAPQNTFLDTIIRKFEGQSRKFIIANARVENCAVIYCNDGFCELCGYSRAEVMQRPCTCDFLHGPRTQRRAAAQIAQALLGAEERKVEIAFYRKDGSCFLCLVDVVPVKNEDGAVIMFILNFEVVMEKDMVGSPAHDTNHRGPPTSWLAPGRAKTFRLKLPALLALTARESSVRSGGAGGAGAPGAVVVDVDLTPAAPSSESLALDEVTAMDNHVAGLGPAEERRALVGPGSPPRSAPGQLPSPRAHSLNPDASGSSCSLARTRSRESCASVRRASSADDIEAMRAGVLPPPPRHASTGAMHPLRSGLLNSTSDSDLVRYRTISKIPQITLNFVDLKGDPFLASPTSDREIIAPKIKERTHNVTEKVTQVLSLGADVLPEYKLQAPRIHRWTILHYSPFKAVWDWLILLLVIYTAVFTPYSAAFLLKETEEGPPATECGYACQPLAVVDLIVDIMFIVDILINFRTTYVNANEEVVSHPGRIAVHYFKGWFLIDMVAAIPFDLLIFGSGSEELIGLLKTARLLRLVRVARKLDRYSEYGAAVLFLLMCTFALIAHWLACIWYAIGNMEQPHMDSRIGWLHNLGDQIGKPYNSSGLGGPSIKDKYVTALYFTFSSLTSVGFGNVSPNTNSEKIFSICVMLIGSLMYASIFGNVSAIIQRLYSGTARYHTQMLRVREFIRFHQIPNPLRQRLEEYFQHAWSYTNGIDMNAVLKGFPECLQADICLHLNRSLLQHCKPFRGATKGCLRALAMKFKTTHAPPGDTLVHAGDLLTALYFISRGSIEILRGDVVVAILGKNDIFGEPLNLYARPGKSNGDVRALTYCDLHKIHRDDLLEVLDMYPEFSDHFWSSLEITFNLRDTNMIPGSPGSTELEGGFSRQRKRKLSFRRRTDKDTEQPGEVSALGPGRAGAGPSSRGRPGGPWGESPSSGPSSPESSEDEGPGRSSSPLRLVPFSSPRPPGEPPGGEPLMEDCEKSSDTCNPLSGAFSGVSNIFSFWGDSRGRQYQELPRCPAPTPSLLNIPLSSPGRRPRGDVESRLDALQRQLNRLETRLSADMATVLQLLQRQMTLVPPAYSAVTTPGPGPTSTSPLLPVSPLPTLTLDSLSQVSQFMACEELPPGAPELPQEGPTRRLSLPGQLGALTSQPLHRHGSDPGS
Excerpt: (§1) Supplement media-1.zip/Safety_Panel_Profile.csv, table | column: perc_inhibition

5-HT2B (h) = molecular target: T2, 5-HT2B (h) (Homo sapiens, UniProt P41595); test: In vitro CEREP profiling, 5-HT2B (h) (agonist radioligand); format: binding; conditions: test compound concentration 10 uM
T2 construct: purchased Eurofins Cerep (SafetyScreen44), recognised from the panel format
Excerpt: as §1

[2] = In vitro mouse hepatocyte stability; format: in vitro ADME
Excerpt: (§2) Supplement media-1.zip/Hepatocyte_Stability.csv, table | column: clint; t_half

H2 (h) = molecular target: T3, H2 (h) (Homo sapiens, UniProt P25021); test: In vitro CEREP profiling, H2 (h) (antagonist radioligand); format: binding; conditions: test compound concentration 10 uM
T3 construct: purchased Eurofins Cerep (SafetyScreen44), recognised from the panel format
Excerpt: as §1

5-HT1A (h) = molecular target: T4, 5-HT1A (h) (Homo sapiens, UniProt P08908); test: In vitro CEREP profiling, 5-HT1A (h) (agonist radioligand); format: binding; conditions: test compound concentration 10 uM
T4 construct: purchased Eurofins Cerep (SafetyScreen44), recognised from the panel format
T4 sequence (P08908 1-422): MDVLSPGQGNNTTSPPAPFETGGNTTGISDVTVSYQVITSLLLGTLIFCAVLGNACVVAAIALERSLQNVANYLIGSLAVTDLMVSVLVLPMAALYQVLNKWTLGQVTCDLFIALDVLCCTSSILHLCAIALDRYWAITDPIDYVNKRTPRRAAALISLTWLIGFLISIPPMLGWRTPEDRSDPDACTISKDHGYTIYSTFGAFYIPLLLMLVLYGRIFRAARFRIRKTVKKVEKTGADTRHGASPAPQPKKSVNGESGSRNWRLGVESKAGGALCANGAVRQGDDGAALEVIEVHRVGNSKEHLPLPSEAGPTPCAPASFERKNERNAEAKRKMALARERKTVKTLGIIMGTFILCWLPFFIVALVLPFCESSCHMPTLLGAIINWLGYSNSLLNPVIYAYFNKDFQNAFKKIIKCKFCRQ
Excerpt: as §1

mu (MOP) (h) = molecular target: T5, mu (MOP) (h) (Homo sapiens, UniProt P35372); test: In vitro CEREP profiling, mu (MOP) (h) (agonist radioligand); format: binding; conditions: test compound concentration 10 uM
T5 construct: purchased Eurofins Cerep (SafetyScreen44), recognised from the panel format
Excerpt: as §1

COX1(h) = molecular target: T6, COX1(h) (Homo sapiens, UniProt P23219); test: In vitro CEREP profiling, COX1(h); format: biochemical; conditions: test compound concentration 10 uM; Enzyme and Cell-based assays
T6 construct: purchased Eurofins Cerep (SafetyScreen44), recognised from the panel format
Excerpt: as §1

[3] = In vitro rat hepatocyte stability; format: in vitro ADME
Excerpt: as §2

NaV1.5 = NaV1.5 (Homo sapiens, UniProt Q14524); test: In vitro NaV1.5 cardiotoxicity; conditions: top test concentration 30 uM
NaV1.5, sequence (Q14524 whole entry): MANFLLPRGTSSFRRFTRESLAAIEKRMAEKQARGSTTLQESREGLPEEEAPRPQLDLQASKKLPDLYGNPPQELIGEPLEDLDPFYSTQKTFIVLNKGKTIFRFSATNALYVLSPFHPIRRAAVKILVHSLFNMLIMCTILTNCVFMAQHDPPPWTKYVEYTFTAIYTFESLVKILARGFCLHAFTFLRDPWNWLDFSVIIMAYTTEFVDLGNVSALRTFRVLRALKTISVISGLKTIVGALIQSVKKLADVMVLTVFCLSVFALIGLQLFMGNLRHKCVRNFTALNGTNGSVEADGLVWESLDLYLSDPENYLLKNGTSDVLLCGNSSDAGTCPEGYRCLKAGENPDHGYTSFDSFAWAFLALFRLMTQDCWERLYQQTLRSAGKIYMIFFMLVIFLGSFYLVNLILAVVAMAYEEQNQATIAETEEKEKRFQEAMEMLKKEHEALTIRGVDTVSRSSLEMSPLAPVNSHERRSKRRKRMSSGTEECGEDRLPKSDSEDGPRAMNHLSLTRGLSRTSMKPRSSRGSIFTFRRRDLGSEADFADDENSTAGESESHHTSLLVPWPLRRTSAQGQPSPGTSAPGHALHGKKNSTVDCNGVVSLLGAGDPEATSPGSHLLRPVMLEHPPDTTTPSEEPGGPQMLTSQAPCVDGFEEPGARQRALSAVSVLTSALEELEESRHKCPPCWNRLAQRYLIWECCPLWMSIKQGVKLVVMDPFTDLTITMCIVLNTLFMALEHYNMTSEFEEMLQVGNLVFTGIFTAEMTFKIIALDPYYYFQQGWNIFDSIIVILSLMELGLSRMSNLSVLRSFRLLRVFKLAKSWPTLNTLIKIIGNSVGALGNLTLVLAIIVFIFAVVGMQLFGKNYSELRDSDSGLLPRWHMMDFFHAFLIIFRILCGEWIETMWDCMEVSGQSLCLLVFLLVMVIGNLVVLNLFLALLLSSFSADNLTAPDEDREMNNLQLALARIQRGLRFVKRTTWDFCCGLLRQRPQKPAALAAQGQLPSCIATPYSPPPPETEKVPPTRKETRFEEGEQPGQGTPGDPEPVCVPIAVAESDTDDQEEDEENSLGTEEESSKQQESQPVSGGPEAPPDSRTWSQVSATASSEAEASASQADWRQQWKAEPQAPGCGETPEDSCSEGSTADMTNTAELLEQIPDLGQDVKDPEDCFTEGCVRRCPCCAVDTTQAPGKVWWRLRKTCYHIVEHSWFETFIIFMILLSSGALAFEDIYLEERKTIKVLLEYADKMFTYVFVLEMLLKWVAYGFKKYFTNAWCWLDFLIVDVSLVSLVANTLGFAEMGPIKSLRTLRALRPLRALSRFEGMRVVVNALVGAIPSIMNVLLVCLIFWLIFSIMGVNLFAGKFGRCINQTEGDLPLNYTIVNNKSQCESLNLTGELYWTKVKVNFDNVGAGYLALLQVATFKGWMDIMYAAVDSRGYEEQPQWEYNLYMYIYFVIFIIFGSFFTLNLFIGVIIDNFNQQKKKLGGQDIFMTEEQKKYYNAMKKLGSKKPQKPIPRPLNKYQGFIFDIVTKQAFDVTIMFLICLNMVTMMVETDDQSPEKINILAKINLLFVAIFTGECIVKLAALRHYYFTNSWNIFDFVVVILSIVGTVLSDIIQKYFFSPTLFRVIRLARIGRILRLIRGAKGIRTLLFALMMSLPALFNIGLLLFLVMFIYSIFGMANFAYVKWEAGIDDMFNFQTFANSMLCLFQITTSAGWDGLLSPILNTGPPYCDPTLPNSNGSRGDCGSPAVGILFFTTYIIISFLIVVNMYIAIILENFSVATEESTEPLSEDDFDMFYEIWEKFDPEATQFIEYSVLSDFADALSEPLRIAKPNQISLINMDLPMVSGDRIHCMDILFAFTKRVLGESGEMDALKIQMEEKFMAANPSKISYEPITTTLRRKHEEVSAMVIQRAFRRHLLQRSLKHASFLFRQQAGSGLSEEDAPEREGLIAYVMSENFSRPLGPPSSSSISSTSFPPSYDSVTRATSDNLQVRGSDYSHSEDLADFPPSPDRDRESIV
Excerpt: Supplement media-1.zip/Cardiotoxicity.csv, table | column: ic50_rest_state; ic50_use_dep_block; perc_inhibition_rest_state; perc_inhibition_use_dep_block

[4] = system: SARS-CoV-2, isolate USA-WA1/2020; test: microbe, parasite or virus in culture; format: cell-based; conditions: HeLa-ACE2 SARS-CoV-2 antiviral effect without P-gp inhibitor; for EC50: read-out: ec50; for EC90: read-out: ec90
[5] = Hepatic microsomal stability, HLM; format: in vitro ADME, human; conditions: In vitro human liver microsomal stability; for perc_remaining_no_cofactor: no cofactor
[6] = molecular target: T7, norepinephrine transporter (h) (Homo sapiens, UniProt P23975); test: In vitro CEREP profiling, norepinephrine transporter (h) (antagonist radioligand); format: binding; conditions: test compound concentration 10 uM
T7 construct: purchased Eurofins Cerep (SafetyScreen44), recognised from the panel format
T7 sequence (P23975 whole entry): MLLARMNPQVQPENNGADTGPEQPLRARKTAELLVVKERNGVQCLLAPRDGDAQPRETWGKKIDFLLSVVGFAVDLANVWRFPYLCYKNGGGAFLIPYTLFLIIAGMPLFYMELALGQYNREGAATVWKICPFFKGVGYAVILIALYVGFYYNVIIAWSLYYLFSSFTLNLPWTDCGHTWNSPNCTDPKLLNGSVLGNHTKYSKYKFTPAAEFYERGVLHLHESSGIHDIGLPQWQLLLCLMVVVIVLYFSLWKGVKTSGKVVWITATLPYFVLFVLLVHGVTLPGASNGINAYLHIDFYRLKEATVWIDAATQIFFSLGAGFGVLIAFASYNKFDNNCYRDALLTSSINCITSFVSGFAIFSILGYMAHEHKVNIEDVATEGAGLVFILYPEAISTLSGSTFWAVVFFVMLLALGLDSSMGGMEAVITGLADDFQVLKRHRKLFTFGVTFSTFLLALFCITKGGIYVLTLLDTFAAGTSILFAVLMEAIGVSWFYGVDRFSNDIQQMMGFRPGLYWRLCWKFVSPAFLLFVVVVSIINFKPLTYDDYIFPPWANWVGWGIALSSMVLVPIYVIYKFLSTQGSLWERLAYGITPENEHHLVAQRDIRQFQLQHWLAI
Excerpt: as §1

NMDA = test: In vitro CEREP profiling, NMDA (antagonist radioligand); format: binding; conditions: test compound 10 uM
Excerpt: as §1

M1 (h) = molecular target: T8, M1 (h) (Homo sapiens, UniProt P11229); test: In vitro CEREP profiling, M1 (h) (antagonist radioligand); format: binding; conditions: test compound concentration 10 uM
T8 construct: purchased Eurofins Cerep (SafetyScreen44), recognised from the panel format
T8 sequence (P11229 1-460): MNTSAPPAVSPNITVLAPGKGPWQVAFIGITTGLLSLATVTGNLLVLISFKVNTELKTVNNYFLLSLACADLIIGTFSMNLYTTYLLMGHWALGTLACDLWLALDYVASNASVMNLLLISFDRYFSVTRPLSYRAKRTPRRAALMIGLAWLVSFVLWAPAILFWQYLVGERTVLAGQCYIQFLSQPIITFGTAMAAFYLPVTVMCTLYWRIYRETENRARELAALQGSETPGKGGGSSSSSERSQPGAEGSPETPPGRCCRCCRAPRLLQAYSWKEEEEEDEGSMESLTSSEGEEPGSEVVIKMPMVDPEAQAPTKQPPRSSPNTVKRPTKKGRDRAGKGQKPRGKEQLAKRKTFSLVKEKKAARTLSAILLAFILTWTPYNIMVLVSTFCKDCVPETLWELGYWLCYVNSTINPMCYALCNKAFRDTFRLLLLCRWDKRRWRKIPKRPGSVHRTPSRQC
Excerpt: as §1

D1 (h) = molecular target: T9, D1 (h) (Homo sapiens, UniProt P21728); test: In vitro CEREP profiling, D1 (h) (antagonist radioligand); format: binding; conditions: test compound 10 uM
T9 construct: purchased Eurofins Cerep (SafetyScreen44), recognised from the panel format
Excerpt: as §1

[7] = NaV1.5, rest state, read-out: ic50_rest_state
[8] = NaV1.5, use dependent block, read-out: ic50_use_dep_block
[9] = maximum measured response of dose series
[10] = minimum measured response of dose series

hERG, sequence (Q12809 whole entry): as the sequence (Q12809 whole entry) above

| Compound | perc_inhibition_top_conc (hERG) [%] | IC50 (hERG) [µM] | perc_inhibition (% inhibition of the binding of a ligand specific for each target) [1] [%] | perc_inhibition (% inhibition of the binding of a ligand specific for each target) (5-HT2B (h)) [%] | clint [2] [uL/min/1E6 cells] | t_half [2] [min] | perc_inhibition (% inhibition of the binding of a ligand specific for each target) (H2 (h)) [%] | perc_inhibition (% inhibition of the binding of a ligand specific for each target) (5-HT1A (h)) [%] | perc_inhibition (% inhibition of the binding of a ligand specific for each target) (mu (MOP) (h)) [%] | perc_inhibition: % inhibition of control enzyme activity, COX1(h) (COX1(h)) [%] | clint [3] [uL/min/1E6 cells] | t_half [3] [min] | perc_inhibition_rest_state (NaV1.5; NaV1.5, rest state) [%] | IC50 (NaV1.5; [7]) [µM] | perc_inhibition_use_dep_block (NaV1.5; NaV1.5, use dependent block) [%] | IC50 (NaV1.5; [8]) [µM] | clint [5] [µL/min/mg] | perc_remaining [5] [%] | t_half [5] [min] | perc_remaining_no_cofactor [5] [%] | further results |
| --- | --- | --- | --- | --- | --- | --- | --- | --- | --- | --- | --- | --- | --- | --- | --- | --- | --- | --- | --- | --- | --- |
| COc1ccc([C@H](Cc2nnn[nH]2)NC(=O)c2ncnc3[nH]ccc23)cc1 [ASAP-0015381] | 27.0 | > 30 | 5 | -33 | 4.6 | 151.0 | -24 | 5 | -3 | 17 | < 3.0 | > 231.0 | 9.0 | > 30 | 8.0 | > 30 | 2.0 | 105.597 | 1085.642 | 84.68 | perc_max_measured ([4]; maximum measured response): 102.013%; perc_max_measured [4, 9]: 116.588%; perc_min_measured ([4]; minimum measured response): 88.847%; perc_min_measured [4, 10]: 75.952%; EC50 [4]: > 20 µM; EC90 [4]: > 20 µM; perc_inhibition (% inhibition of the binding of a ligand specific for each target) [6]: -5%; perc_inhibition (% inhibition of the binding of a ligand specific for each target) (NMDA): 9%; perc_inhibition (% inhibition of the binding of a ligand specific for each target) (M1 (h)): -4%; perc_inhibition (% inhibition of the binding of a ligand specific for each target) (D1 (h)): -18% |
| COc1ccc([C@@H](Cc2nnn[nH]2)NC(=O)c2ncnc3[nH]ccc23)cc1 [ASAP-0008340] |  |  |  |  |  |  |  |  |  |  |  |  |  |  |  |  | 5.0 | 86.0 | 313.8 | 110.0 |  |
| C[C@H](C(=O)O)[C@@H](NC(=O)c1ncnc2[nH]ccc12)c1ccc(Br)cc1 [ASAP-0014722] | 28.0 | > 30 | 14 | -4 | 4.35 | 159.0 | -21 | 2 | -10 | 14 | < 3.0 | > 231.0 | 18.0 | > 30 | 16.0 | > 30 | 3.0 | 92.211 | 573.861 | 101.611 | perc_max_measured [4, 9]: 104.611%; perc_min_measured ([4]; minimum measured response): 91.919%; perc_min_measured [4, 10]: 71.809%; EC50 [4]: > 20 µM; EC90 [4]: > 20 µM; perc_inhibition (% inhibition of the binding of a ligand specific for each target) [6]: -6%; perc_inhibition (% inhibition of the binding of a ligand specific for each target) (NMDA): 4%; perc_inhibition (% inhibition of the binding of a ligand specific for each target) (M1 (h)): -1%; perc_inhibition (% inhibition of the binding of a ligand specific for each target) (D1 (h)): -8% |

Source: paper doi:10.1101/2024.08.19.608619, “Discovery of potent SARS-CoV-2 nsp3 macrodomain inhibitors uncovers lack of translation to cellular antiviral response” (bioRxiv, 2024)
